In paper PMC11519904, “Comprehensive Cell Biological Investigation of Cytochalasin B Derivatives with Distinct Activities on the Actin Network” (Journal of Natural Products, 2024):
“And” between values parts separate entries of the source, which are not always exact repeats. Equal entries are not always repeated.

Assays:
[1] = target: T1, actin (G-actin purified from rabbit skeletal muscle) (Oryctolagus cuniculus, UniProt P68135); test: Pyrene actin polymerization assay; assay type: biochemical; details: 2 μM compound, 2 μM actin (5% pyrene-actin), 550 nM actin seeds, after 30 min; control = 100%
T1 construct: 1.5 kg of fresh rabbit skeletal muscle was minced with a meat grinder; from tissue; host or cells: rabbit skeletal muscle (acetone powder)
Text: To rule out that the reduced in cellulo efficacies of 3–5 could instead be explained by an altered membrane permeability of modified compounds or their differential effects on other intracellular factors, pyrene actin polymerization assays[23] were used to analyze potential effects on actin assembly in vitro under defined conditions. Globular actin (G-actin) was purified from rabbit skeletal muscle[24] and fluorescently labeled with pyrene (see description in the Supporting Information). G-actin (2 μM) supplemented with 5% pyrene-labeled actin was added to actin seeds and the respective compound (2 μM) in polymerization buffer to initiate the reaction. Actin polymerization was then assessed by reading out the increasing pyrene fluorescence signal over time (Figure 3).
Acetone powder and G-actin were prepared as described previously.[24] Briefly, 1.5 kg of fresh rabbit skeletal muscle was minced with a meat grinder. Subsequently, the meat was stirred for 15 min in 2.5 L of high-salt buffer (0.5 M KCl, 0.1 M K2HPO4, 2 mM benzamidine, pH 6.4) and then pelleted at 4000g for 10 min. The supernatant was discarded, and the pellet was extracted once more with high-salt buffer and then washed twice with ice-cold ddH2O adjusting the slurry with 1 M Na2CO3 to pH 8.3 until a slight swelling of the pellet became visible. The pellet was then resuspended in ice-cold acetone, stirred for 15 min, and then centrifuged for 10 min at 4000g. The supernatant was discarded, and the pellet was washed once more with acetone before the pellet was broken up and dried in small pieces on aluminum foil under a fume hood overnight. The dried acetone powder was stored at −80 °C for further use.
For purification of G-actin, 5 g of the acetone powder was extracted five times with 50 mL of G-buffer containing 2 mM Tris-HCl, pH 8.0, 0.2 mM CaCl2, 0.5 mM DTT, 0.2 mM Na2ATP, and 0.1 mg/mL NaN3. After each step, the solution was filtered through a fine gauze, yielding a total volume of 250 mL. Subsequently, the solution was centrifuged for 30 min at 20,000g at 4 °C. Actin in the supernatant was then polymerized by addition of 25 × polymerization buffer (250 mM Tris-HCl pH 8.0, 1250 mM KCl, 25 mM Na2ATP, 50 mM MgCl2 × 6 H2O) overnight. Subsequently, KCl was added to a final concentration of 750 mM, followed by centrifugation of the solution at 150,000g at 4 °C for 3 h. The F-actin pellet was then homogenized with 25 mL of G-actin buffer using a potter and then dialyzed against G-buffer. After a final centrifugation step at 150,000g at 4 °C for 3 h, G-actin was purified by size exclusion chromatography using a HiLoad 26/75 Superdex 200 column. Actin concentrations were determined by measuring the absorbance at 290 nm and using an extinction coefficient of 26,600 M^–1 cm^–1.
For pyrene labeling, 10–20 mL of G-actin solution were dialyzed against labeling buffer following the procedure described by Doolittle et al.[38] […]
Pyrene assays were conducted to assess the inhibitory properties of cytochalasins on actin polymerization under defined conditions in vitro using G-actin and actin seeds. The degree of labeling was determined; EC290 nm actin: 26600 1/M × cm; EC342 nm pyrene: 31091 1/M × cm. […]

[2] = Microextraction of compounds from medium after cell exposure (conversion to 2); assay type: in vitro ADME, human; details: for conversion to 2 after 1 h: 1 h cell exposure (data not shown)
Procedure: […] Therefore, cells were seeded and treated with 5 × IC50 concentrations, as already described. […] After evaporation of EtOAc, the dried extracts were diluted in methanol (50 μL) and measured with a high-pressure liquid chromatography system coupled to a diode-array UV/vis detector conjugated with an electrospray ionization mass spectrometer, using an UltiMate 3000 Series uHPLC (Thermo Fisher Scientific) utilizing a C18 Acquity UPLC BEH column (2.1 × 50 mm, 1.7 μm; Waters, Milford, USA) connected to an amaZon speed ESI-Iontrap-MS (Bruker, Billerica, MA, USA). Spectra were analyzed using Bruker Compass DataAnalysis 4.4 SR1.

## C=C1[C@@H](C)[C@H]2[C@H](Cc3ccccc3)NC(=O)[C@]23OC(=O)/C=C/[C@H](O)CCC[C@@H](C)C/C=C/[C@H]3[C@@H]1OC(C)=O [Compound 3, 7-O-acetyl cytochalasin B]
[1]
  relative actin polymerization rate: 107%
[2]; medium re-extracted after 24 h, 5 x IC50, HPLC-UV-MS
  conversion to 2 / decomposition after 24 h cell exposure: no decomposition

## C=C1[C@@H](C)[C@H]2[C@H](Cc3ccccc3)N(C(C)=O)C(=O)[C@]23OC(=O)/C=C/[C@H](O)CCC[C@@H](C)C/C=C/[C@H]3[C@@H]1O [Compound 5, N-acetyl cytochalasin B]
[1]
  relative actin polymerization rate: 86% and 84–86%
[2]
  conversion to 2 after 1 h: little conversion

## C=C1[C@@H](C)[C@H]2[C@H](Cc3ccccc3)NC(=O)[C@]23OC(=O)/C=C/[C@H](OC(C)=O)CCC[C@@H](C)C/C=C/[C@H]3[C@@H]1O [Compound 6, 20-O-acetyl cytochalasin B]
[1]
  relative actin polymerization rate: 58%
[2]
  conversion to 2 after 1 h: not detected
